Data published in patent US11668709B2, “System for monitoring post-translational modification of protein using bio-sensor with gap and manufacturing method for bio-sensor” (KOREA INSTITUTE OF SCIENCE AND TECHNOLOGY, priority 2018, dated 2023).

Assays:
Format in all cases: biochemical
O-GlcNAcase [1] = experiment: Verification Experiment 5: impedance with O-GlcNAcase inhibitor or promoter, second antibody (AT-8 antibody); settings: 100 μM BZX2 treated; tau protein 0.5-500 fg/ml; AT-8 phosphorylation site antibody
Method: (§1) Tau protein at a concentration of 5250 ng/mL was diluted 1/10 at various concentrations (0.5 fg/mL to 50 pg/mL) with 0.1% PBST and treated with Thiamet G treatment inhibiting O-GlcNAcase or BZX2 promoting O-GlcNAcase as needed.
The impedance Z was measured for when treated with a substance that inhibits O-GlcNAcase; and when treated with a substance that promotes O-GlcNAcase of O-glycosylated tau protein, using the system for monitoring post-translational modification of protein according to the embodiment of the present disclosure.
A sample containing the second conjugate S2 (microbead+first antibody+tau protein) and an antibody (second antibody, AT-8 antibody) that can bind to the phosphorylation site of tau protein was introduced into the sensor 100, and impedance Z was measured for each of the following: (a) treated with 100 μM of thiamet G which is a substance that inhibits O-GlcNAcase; and (b) treated with 100 μM of BZX2 which is substance that promotes O-GloNAcase, for respective concentrations (0.5 fg/ml, 5 fg/ml, 50 fg/ml, and 500 fg/ml) of tau protein.
The impedance Z was measured from each sample when the first sample containing the second conjugate S2 was introduced into the sensor 100 and when the second sample containing the third conjugate S3 was introduced into the sensor 100.

O-GlcNAcase [2] = experiment: Verification Experiment 4: impedance with and without O-GlcNAcase inhibitor, third antibody (O-g Antibody); settings: 100 μM thiamet G treated compared to untreated; tau protein 0.5-524 fg/ml; O-glycosylation site antibody
Method: as §1
(§2) The impedance Z was measured with and without the substance that inhibits O-GlcNAcase, using the system for monitoring post-translational modification of protein according to the embodiment of the present disclosure.

O-GlcNAcase [3] = experiment: Verification Experiment 6: impedance of tau protein with second or third antibody, with and without thiamet G; settings: 5 pg/ml tau protein
Method: as §1, §2
(a) 5 pg/ml of tau protein, (b) 5 pg/ml of tau protein+second antibody (AT-8 antibody), and (c) 5 pg/ml of tau protein+third antibody (O-g Antibody) were introduced into the sensor 100, respectively, and then impedance Z was measured for PBS, Neg, Thiamet G untreated, and 100 μM of thiamet G treated samples, respectively.

BZX2
impedance difference (Z1−Z2) (O-GlcNAcase [1]): increases as the concentration of tau protein increases

CCN=C1N[C@@H]2[C@@H](O)[C@H](O)[C@@H](CO)O[C@@H]2S1 [thiamet G]
difference in impedance (Z1−Z3) (O-GlcNAcase [2]): greater
impedance Z2 measured as the second antibody (AT-8 antibody) was added (O-GlcNAcase [3]; 100 μM thiamet G treated (untreated 33.65 MΩ)): 37.65 MΩ
impedance Z3 measured as the third antibody (O-g antibody) was added (O-GlcNAcase [3]; 100 μM thiamet G treated (untreated 38.27 MΩ)): 35.0 MΩ
